Row | SMILES | melting point
1 | N#Cc1cnn2c(C(F)(F)F)cc(-c3cccc(Cl)c3)nc12 [Example 1.1, 5-(3-Chloro-phenyl)-7-trifluoromethyl-pyrazolo[1,5-a]pyrimidine-3-carbonitrile] | 204 °C
2 | Cc1ccc(-c2cc(C(F)(F)F)n3ncc(C#N)c3n2)cc1 [Example 1.2, 5-(4-Methyl-phenyl)-7-trifluoromethyl-pyrazolo[1,5-a]pyrimidine-3-carbonitrile] | 121 °C
3 | N#Cc1cnn2c(C(F)(F)F)cc(-c3ccccc3Cl)nc12 [Example 1.3, 5-(2-Chloro-phenyl)-7-trifluoromethyl-pyrazolo[1,5-a]pyrimidine-3-carbonitrile] | 169 °C
4 | N#Cc1cnn2c(C(F)(F)F)cc(-c3ccc(Cl)cc3Cl)nc12 [Example 1.4, 5-(2,4-Dichloro-phenyl)-7-trifluoromethyl-pyrazolo[1,5-a]pyrimidine-3-carbonitrile] | 180 °C
5 | Cc1cccc(-c2cc(C(F)(F)F)n3ncc(C#N)c3n2)c1 [Example 1.5, 5-(3-Methyl-phenyl)-7-trifluoromethyl-pyrazolo[1,5-a]pyrimidine-3-carbonitrile] | 202 °C
6 | N#Cc1cnn2c(C(F)(F)F)cc(-c3cccc(C(F)(F)F)c3)nc12 [Example 1.6, 5-(3-Trifluoromethyl-phenyl)-7-trifluoromethyl-pyrazolo[1,5-a]pyrimidine-3-carbonitrile] | 192 °C
7 | N#Cc1cnn2c(C(F)(F)F)cc(-c3ccc(C(F)(F)F)cc3)nc12 [Example 1.7, 5-(4-Trifluoromethyl-phenyl)-7-trifluoromethyl-pyrazolo[1,5-a]pyrimidine-3-carbonitrile] | 176 °C
8 | N#Cc1cnn2c(C(F)(F)F)cc(-c3cccc(F)c3)nc12 [Example 1.8, 5-(3-Fluoro-phenyl)-7-trifluoromethyl-pyrazolo[1,5-a]pyrimidine-3-carbonitrile] | 199 °C
9 | N#Cc1cnn2c(C(F)(F)F)cc(-c3ccc(F)cc3)nc12 [Example 1.9, 5-(4-Fluoro-phenyl)-7-trifluoromethyl-pyrazolo[1,5-a]pyrimidine-3-carbonitrile] | 198 °C
10 | N#Cc1cnn2c(C(F)(F)F)cc(-c3ccc(F)cc3F)nc12 [Example 1.10, 5-(2,4-Difluoro-phenyl)-7-trifluoromethyl-pyrazolo[1,5-a]pyrimidine-3-carbonitrile] | 149 °C
11 | N#Cc1cnn2c(C(F)(F)F)cc(-c3ccccc3F)nc12 [Example 1.11, 5-(2-Fluoro-phenyl)-7-trifluoromethyl-pyrazolo[1,5-a]pyrimidine-3-carbonitrile] | 165 °C
12 | N#Cc1cnn2c(C(F)(F)F)cc(-c3ccc(F)c(Cl)c3)nc12 [Example 1.14, 5-(3-Chloro-4-fluoro-phenyl)-7-trifluoromethyl-pyrazolo[1,5-a]pyrimidine-3-carbonitrile] | 190 °C
13 | Cc1cc(-c2cc(C(F)(F)F)n3ncc(C#N)c3n2)ccc1Cl [Example 1.15, 5-(4-Chloro-3-methyl-phenyl)-7-trifluoromethyl-pyrazolo[1,5-a]pyrimidine-3-carbonitrile] | 216 °C
14 | N#Cc1cnn2c(C(F)(F)F)cc(-c3ccc(Cl)c(Cl)c3)nc12 [Example 1.16, 5-(3,4-Dichloro-phenyl)-7-trifluoromethyl-pyrazolo[1,5-a]pyrimidine-3-carbonitrile] | 206 °C
15 | N#Cc1cnn2c(C(F)(F)F)cc(-c3ccc(C(F)(F)F)c(F)c3)nc12 [Example 1.17, 5-(3-Fluoro-4-trifluoromethyl-phenyl)-7-trifluoromethyl-pyrazolo[1,5-a]pyrimidine-3-carbonitrile] | 184 °C
16 | N#Cc1cnn2c(C(F)(F)F)cc(-c3ccccn3)nc12 [Example 1.20, 5-Pyridin-2-yl-7-trifluoromethyl-pyrazolo[1,5-a]pyrimidine-3-carbonitrile] | 208 °C
17 | N#Cc1cnn2c(C(F)(F)F)cc(-c3cccnc3)nc12 [Example 1.21, 5-Pyridin-3-yl-7-trifluoromethyl-pyrazolo[1,5-a]pyrimidine-3-carbonitrile] | 193 °C
18 | N#Cc1cnn2c(C(F)(F)F)cc(-c3ccncc3)nc12 [Example 1.22, 5-Pyridin-4-yl-7-trifluoromethyl-pyrazolo[1,5-a]pyrimidine-3-carbonitrile] | 233 °C
19 | Cc1nn2c(C(F)(F)F)cc(-c3ccc(C(F)(F)F)cc3)nc2c1C#N [Example 2.1, 2-Methyl-5-(4-trifluoromethyl-phenyl)-7-trifluoromethyl-pyrazolo[1,5-a]pyrimidine-3-carbonitrile] | 184 °C
20 | Cc1nn2c(C(F)(F)F)cc(-c3ccc(Cl)cc3)nc2c1C#N [Example 2.3, 5-(4-Chloro-phenyl)-2-methyl-7-trifluoromethyl-pyrazolo[1,5-a]pyrimidine-3-carbonitrile] | 238 °C

Row | SMILES | melting point
21 | Cc1nn2c(C(F)(F)F)cc(-c3ccc(F)c(Cl)c3)nc2c1C#N [Example 2.4, 5-(3-Chloro-4-fluoro-phenyl)-2-methyl-7-trifluoromethyl-pyrazolo[1,5-a]pyrimidine-3-carbonitrile] | 196 °C
22 | N#CCc1nn2c(C(F)(F)F)cc(-c3ccc(F)c(Cl)c3)nc2c1C#N [Example 3.1, 5-(3-Chloro-4-fluoro-phenyl)-2-cyanomethyl-7-trifluoromethyl-pyrazolo[1,5-a]pyrimidine-3-carbonitrile] | 185 °C
23 | FC(F)(F)c1cc(-c2ccc(Cl)cc2)nc2c(-c3cccnc3)cnn12 [Example 4.1, 5-(4-Chloro-phenyl)-3-pyridin-3-yl-7-trifluoromethyl-pyrazolo[1,5-a]pyrimidine] | 188 °C
24 | FC(F)(F)c1cc(-c2ccc(Cl)cc2)nc2c(-c3ccncc3)cnn12 [Example 4.2, 5-(4-Chloro-phenyl)-3-pyridin-4-yl-7-trifluoromethyl-pyrazolo[1,5-a]pyrimidine] | 274 °C
25 | Cc1cc(-c2cc(C(F)(F)F)n3ncc(-c4ccncc4)c3n2)ccc1Cl [Example 4.4, 5-(4-Chloro-3-methyl-phenyl)-3-pyridin-4-yl-7-trifluoromethyl-pyrazolo[1,5-a]pyrimidine] | 247 °C
26 | Cc1cc(-c2cc(C(F)(F)F)n3ncc(-c4ccccn4)c3n2)ccc1Cl [Example 4.5, 5-(4-Chloro-3-methyl-phenyl)-3-pyridin-2-yl-7-trifluoromethyl-pyrazolo[1,5-a]pyrimidine] | 183 °C
27 | Fc1ccc(-c2cc(C(F)(F)F)n3ncc(-c4cccnc4)c3n2)cc1Cl [Example 4.6, 5-(3-Chloro-4-fluoro-phenyl)-3-pyridin-3-yl-7-trifluoromethyl-pyrazolo[1,5-a]pyrimidine] | 190 °C
28 | Fc1ccc(-c2cc(C(F)(F)F)n3ncc(-c4ccncc4)c3n2)cc1Cl [Example 4.7, 5-(3-Chloro-4-fluoro-phenyl)-3-pyridin-4-yl-7-trifluoromethyl-pyrazolo[1,5-a]pyrimidine] | 265 °C
29 | Fc1ccc(-c2cc(C(F)(F)F)n3ncc(-c4ccccn4)c3n2)cc1Cl [Example 4.8, 5-(3-Chloro-4-fluoro-phenyl)-3-pyridin-2-yl-7-trifluoromethyl-pyrazolo[1,5-a]pyrimidine] | 197 °C
30 | FC(F)(F)c1cc(-c2ccc(Cl)c(Cl)c2)nc2c(-c3ccncc3)cnn12 [Example 4.10, 5-(3,4-Dichloro-phenyl)-3-pyridin-4-yl-7-trifluoromethyl-pyrazolo[1,5-a]pyrimidine] | 260 °C
31 | FC(F)(F)c1cc(-c2ccc(Cl)c(Cl)c2)nc2c(-c3ccccn3)cnn12 [Example 4.11, 5-(3,4-Dichloro-phenyl)-3-pyridin-2-yl-7-trifluoromethyl-pyrazolo[1,5-a]pyrimidine] | 188 °C
32 | FC(F)(F)c1ccc(-c2cc(C(F)(F)F)n3ncc(-c4ccccn4)c3n2)cc1 [Example 4.12, 5-(4-Trifluoromethyl-phenyl)-3-pyridin-2-yl-7-trifluoromethyl-pyrazolo[1,5-a]pyrimidine] | 202 °C
33 | FC(F)(F)c1cccc(-c2cc(C(F)(F)F)n3ncc(-c4cccnc4)c3n2)c1 [Example 4.13, 5-(3-Trifluoromethyl-phenyl)-3-pyridin-3-yl-7-trifluoromethyl-pyrazolo[1,5-a]pyrimidine] | 171 °C
34 | FC(F)(F)c1ccc(-c2cc(C(F)(F)F)n3ncc(-c4cccnc4)c3n2)cc1 [Example 4.14, 5-(4-Trifluoromethyl-phenyl)-3-pyridin-3-yl-7-trifluoromethyl-pyrazolo[1,5-a]pyrimidine] | 163 °C
35 | FC(F)(F)c1ccc(-c2cc(C(F)(F)F)n3ncc(-c4ccncc4)c3n2)cc1 [Example 4.15, 5-(4-Trifluoromethyl-phenyl)-3-pyridin-4-yl-7-trifluoromethyl-pyrazolo[1,5-a]pyrimidine] | 261 °C
36 | FC(F)(F)c1cccc(-c2cc(C(F)(F)F)n3ncc(-c4ccncc4)c3n2)c1 [Example 4.16, 5-(3-Trifluoromethyl-phenyl)-3-pyridin-4-yl-7-trifluoromethyl-pyrazolo[1,5-a]pyrimidine] | 241 °C
37 | Fc1cc(-c2cc(C(F)(F)F)n3ncc(-c4ccncc4)c3n2)ccc1C(F)(F)F [Example 4.17, 5-(3-Fluoro-4-trifluoromethyl-phenyl)-3-pyridin-4-yl-7-trifluoromethyl-pyrazolo[1,5-a]pyrimidine] | 262 °C
38 | Fc1cc(-c2cc(C(F)(F)F)n3ncc(-c4cccnc4)c3n2)ccc1C(F)(F)F [Example 4.18, 5-(3-Fluoro-4-trifluoromethyl-phenyl)-3-pyridin-3-yl-7-trifluoromethyl-pyrazolo[1,5-a]pyrimidine] | 162 °C
39 | Cc1cc(-c2cnn3c(C(F)(F)F)cc(-c4ccc(Cl)cc4)nc23)cc(C)n1 [Example 4.19, 5-(4-Chloro-phenyl)-3-(2,6-dimethyl-pyridin-4-yl)-7-trifluoromethyl-pyrazolo[1,5-a]pyrimidine] | 256 °C
40 | Cc1cc(-c2cnn3c(C(F)(F)F)cc(-c4ccc(Cl)c(C)c4)nc23)cc(C)n1 [Example 4.20, 5-(4-Chloro-3-methyl-phenyl)-3-(2,6-dimethyl-pyridin-4-yl)-7-trifluoromethyl-pyrazolo[1,5-a]pyrimidine] | 254 °C
